# Reference: US20050250725A1, “Regulation of the P21 gene and uses thereof” (priority 2000, published 2005)
# Assays:
# renal p21 expression = experiment: Renal p21 expression after cisplatin administration; format: in vivo
# Method: The present invention examined the effect of p21 in protecting the renal function from cisplatin induced damage. An increase in renal p21 expression was observed after ischemia-reperfusion, urinary tract obstruction and cisplatin administration (FIG. 7). Further, to assess the significance of p21 in renal function, blood urea nitrogen was measured in mice with and without p21 gene subsequent to cisplatin administration. It was observed that the blood urea nitrogen for mice lacking the p21 gene was retained to a higher degree than the mice with p21 gene (FIG. 8).
# renal cells = format: cell-based
# Method: Percent apoptosis is also indicated.
# Next, the cytoprotective effect of histone deacetylase inhibitors such as phenylbutyrate on renal cells was examined. Cells were control cells, or exposed to cisplatin (50 uM) alone, to phenylbutyrate (100 uM) or to phenybutyrate and cisplatin.
Molecule,renal p21 expression (renal p21 expression),"protection from cisplatin-induced apoptosis (renal cells; prior exposure to phenylbutyrate, then cisplatin)",distribution of DNA (renal cells; renal cells exposed to phenylbutyrate 100 uM and cisplatin 50 uM)
N.N.[Cl][Pt][Cl] [cisplatin],increase,,
phenylbutyrate,,protected from apoptosis,normal distribution of DNA
